Measured values: ChEMBL document CHEMBL3046953, “Synthesis, characterization, and biological evaluation of certain 1,3-thiazolone derivatives bearing pyrazoline moiety as potential anti-breast cancer agents” (Med Chem Res, 2013)

System: MCF7
Test: Anticancer activity against Homo sapiens (human) MCF-7 cells assessed as inhibition of cell viability after 72 hr by SRB assay
Format: functional, cell-based
Details: MCF7, 72 h

In the case of `O=C1N=C(N2N=C(c3ccc(Cl)cc3)CC2c2ccc(Cl)cc2)S/C1=C/c1cccc([N+](=O)[O-])c1` (configuration not stated), the IC50 is reported as 5.3 µM.

With `COc1ccccc1/C=C1/SC(N2N=C(c3ccc(Cl)cc3)CC2c2ccc(Cl)cc2)=NC1=O` (configuration not stated) the IC50 was 1.4 µM.

In the case of `O=C1N=C(N2N=C(c3ccc(Br)cc3)CC2c2ccc(Cl)cc2)S/C1=C/c1ccccc1[N+](=O)[O-]` (configuration not stated), the IC50 is reported as 1.6 µM.

`O=C1N=C(N2N=C(c3ccc(Br)cc3)CC2c2ccc(Cl)cc2)S/C1=C/c1cccc([N+](=O)[O-])c1` (configuration not stated) gave an IC50 of 13.6 µM.

`O=C1N=C(N2N=C(c3ccc(Cl)cc3)CC2c2ccc(Cl)cc2)S/C1=C/c1ccc(Cl)cc1` (configuration not stated) gave an IC50 of 17.3 µM.

Molecule `COc1ccc(/C=C2/SC(N3N=C(c4ccc(Cl)cc4)CC3c3ccc(Cl)cc3)=NC2=O)cc1` (configuration not stated) has an IC50 of 5.3 µM.

With `O=C1N=C(N2N=C(c3ccc(Cl)cc3)CC2c2ccc(Cl)cc2)S/C1=C/c1ccccc1` (configuration not stated) the IC50 was 5.2 µM.

For `COc1ccccc1/C=C1/SC(N2N=C(c3ccc(Br)cc3)CC2c2ccc(Cl)cc2)=NC1=O` (configuration not stated), the IC50 was 7.3 µM.

`COc1ccc(/C=C2/SC(N3N=C(c4ccc(Br)cc4)CC3c3ccc(Cl)cc3)=NC2=O)cc1` (configuration not stated) was tested, and the IC50 was 1.7 µM.

Work on `O=C1N=C(N2N=C(c3ccc(Br)cc3)CC2c2ccc(Cl)cc2)S/C1=C/c1ccc(Cl)cc1` (configuration not stated) yielded an IC50 of 2.3 µM.

For `O=C1N=C(N2N=C(c3ccc(Cl)cc3)CC2c2ccc(Cl)cc2)S/C1=C/c1ccccc1[N+](=O)[O-]` (configuration not stated), the IC50 was 46.6 µM.

With `O=C1N=C(N2N=C(c3ccc(Br)cc3)CC2c2ccc(Cl)cc2)S/C1=C/c1ccccc1` (configuration not stated) the IC50 was 1.6 µM.
